# ChEMBL document CHEMBL1201862, “PubChem BioAssay data set” (2004)
# Calls of active or inactive are those of the source.
# Columns and labels:
# [1] = test system: H9c2; experiment: cells; assay type: functional, cell-based; settings: Rattus norvegicus, H9c2, Myocardium;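 also: confirmatory concentration-response retest of ultra-high-throughput screening hits for modulation of myocardial damage; cell death induced by hydrogen peroxide oxidative stress; compound pretreatment for 60 min then peroxide exposure for 2 h; potency is for protecting the cells against peroxide damage rather than for killing them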
# [2] = biological target: T1, Small ubiquitin-related modifier 2 (Homo sapiens, UniProt P61956); experiment: SUMO2–SIM peptide binding inhibitors, dose response, selectivity assay for SUMO1 interaction inhibitor project, biochemical, fluorescence polarization, uHTS hits (AID 624385); assay type: functional; settings: read-out: IC50_Mean
# T1 sequence (P61956 whole entry): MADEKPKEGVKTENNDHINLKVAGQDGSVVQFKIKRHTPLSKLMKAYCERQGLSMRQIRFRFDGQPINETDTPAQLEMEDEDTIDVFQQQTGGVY
# [3] = biological target: T2, Small ubiquitin-related modifier 1 (Homo sapiens, UniProt P63165); experiment: inhibitors of SUMO1 peptide binding, dose response, biochemical, fluorescence polarization, uHTS hits (AID 624382); assay type: functional; settings: read-out: IC50_Mean
# T2 sequence (P63165 whole entry): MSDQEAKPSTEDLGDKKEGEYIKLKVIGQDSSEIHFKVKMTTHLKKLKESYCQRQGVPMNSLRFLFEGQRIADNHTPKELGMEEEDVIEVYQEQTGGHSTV
# [4] = biological target: T1, Small ubiquitin-related modifier 2; experiment: inhibitors of SUMO2 protein-protein interaction, dose response, selectivity assay for SUMO1 interaction inhibitor project, biochemical, FRET, human SUMO2, uHTS hits (AID 624384); assay type: functional; settings: read-out: IC50_Mean
# [5] = biological target: T2, Small ubiquitin-related modifier 1; experiment: inhibitors of SUMO1 partner interactions, dose response, biochemical, FRET (AID 624383); assay type: functional; settings: read-out: IC50_Mean
# [6] = biological target: Beta-lactamase (Salmonella choleraesuis (strain SC-B67), UniProt Q5J463); experiment: Epi-absorbance-based counterscreen for selective VIM-2 inhibitors: dose response biochemical high throughput screening assay to identify inhibitors of TEM-1 serine-beta-lactamase.
# Sequence of Beta-lactamase (Salmonella choleraesuis (strain SC-B67), UniProt Q5J463) (Q5J463 whole entry): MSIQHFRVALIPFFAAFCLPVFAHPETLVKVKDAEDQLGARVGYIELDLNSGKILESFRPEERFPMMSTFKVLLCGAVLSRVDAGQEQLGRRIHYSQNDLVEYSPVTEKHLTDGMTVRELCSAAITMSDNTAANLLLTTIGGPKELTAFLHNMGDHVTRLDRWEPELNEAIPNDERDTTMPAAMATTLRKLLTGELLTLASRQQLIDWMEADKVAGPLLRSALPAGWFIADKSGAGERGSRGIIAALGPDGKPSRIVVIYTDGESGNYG
# [7] = biological target: T3, Beta-lactamase (Pseudomonas aeruginosa, UniProt Q79MP6); experiment: IMP-1 metallo-beta-lactamase inhibitors, dose response, selectivity assay for VIM-2 inhibitor project, biochemical, epi-absorbance (AID 1920)
# T3 sequence (Q79MP6 whole entry): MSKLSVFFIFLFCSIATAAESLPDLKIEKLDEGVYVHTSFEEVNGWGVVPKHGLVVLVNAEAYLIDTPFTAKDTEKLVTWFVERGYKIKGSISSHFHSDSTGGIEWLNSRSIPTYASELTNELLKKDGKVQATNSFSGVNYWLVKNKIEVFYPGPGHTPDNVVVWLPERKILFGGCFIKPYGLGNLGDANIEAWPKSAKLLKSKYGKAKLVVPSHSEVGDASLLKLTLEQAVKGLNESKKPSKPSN
# [8] = biological target: T3, Beta-lactamase; experiment: […] counterscreen for selective VIM-2 inhibitors: dose response biochemical high throughput screening assay to identify inhibitors of IMP-1 metallo-beta-lactamase.
# [9] = biological target: T4, Ubiquitin-conjugating enzyme E2 N (Homo sapiens, UniProt P61088); assay type: functional;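 also: Dose-response confirmation in a TR-FRET assay detecting UBC13-driven polyubiquitin chain formation, inhibition measured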
# T4 sequence (P61088 whole entry): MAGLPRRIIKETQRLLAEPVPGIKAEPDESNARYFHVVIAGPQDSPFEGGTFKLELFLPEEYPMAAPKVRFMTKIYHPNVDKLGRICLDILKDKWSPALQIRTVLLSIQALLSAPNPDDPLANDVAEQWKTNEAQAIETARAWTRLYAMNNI
# [10] = biological target: Interleukin-8 (Homo sapiens, UniProt P10145); experiment: Dose Response confirmation of uHTS small molecule hits for cystic fibrosis induced NFkb Inhibitors in a PAF-induced IL8 counterscreen.; assay type: functional; settings: read-out: IC50_Mean
# Sequence of Interleukin-8 (P10145 whole entry): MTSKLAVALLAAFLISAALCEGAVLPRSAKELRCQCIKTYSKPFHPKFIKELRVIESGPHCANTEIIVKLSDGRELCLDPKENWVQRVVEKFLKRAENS
# [11] = biological target: T5, High affinity choline transporter 1 (Homo sapiens, UniProt Q9GZV3); experiment: CHT inhibitors, dose response, cell-based, 5-point CRC, membrane potential dye (AID 504840); assay type: functional
# T5 sequence (Q9GZV3 whole entry): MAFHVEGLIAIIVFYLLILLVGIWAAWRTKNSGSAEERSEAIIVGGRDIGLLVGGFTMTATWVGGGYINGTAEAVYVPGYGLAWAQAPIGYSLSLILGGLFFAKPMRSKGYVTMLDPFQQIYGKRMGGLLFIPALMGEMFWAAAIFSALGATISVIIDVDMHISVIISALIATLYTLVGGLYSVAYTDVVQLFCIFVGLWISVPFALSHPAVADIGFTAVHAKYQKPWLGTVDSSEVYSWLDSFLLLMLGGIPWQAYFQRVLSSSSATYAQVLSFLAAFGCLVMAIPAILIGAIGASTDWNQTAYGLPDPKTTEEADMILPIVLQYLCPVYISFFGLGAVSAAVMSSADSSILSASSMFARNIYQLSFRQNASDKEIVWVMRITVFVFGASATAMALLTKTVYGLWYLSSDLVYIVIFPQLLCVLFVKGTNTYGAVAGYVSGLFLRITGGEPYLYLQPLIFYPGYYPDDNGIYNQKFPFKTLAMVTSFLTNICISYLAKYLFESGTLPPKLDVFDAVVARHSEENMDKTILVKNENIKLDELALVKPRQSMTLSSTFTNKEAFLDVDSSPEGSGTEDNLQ
# [12] = biological target: T5, High affinity choline transporter 1; experiment: CHT inhibitors, dose response, cell-based, 10-point CRC, membrane potential dye (AID 588401); assay type: functional;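 also: membrane potential dye fluorescence of choline-evoked depolarization via CHT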
# [13] = biological target: Protein Wnt-3a (Mus musculus, UniProt P27467); experiment: Wnt3a-driven reporter signaling inhibition, dose response, selectivity assay for Gli-SUFU antagonist project, Wnt-LIGHT cells, luminescence (AID 651570); assay type: functional; settings: read-out: IC50_Mean;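 also: Wnt-LIGHT reporter cells stimulated with conditioned medium from Wnt3a-producing cells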
# Sequence of Protein Wnt-3a (P27467 whole entry): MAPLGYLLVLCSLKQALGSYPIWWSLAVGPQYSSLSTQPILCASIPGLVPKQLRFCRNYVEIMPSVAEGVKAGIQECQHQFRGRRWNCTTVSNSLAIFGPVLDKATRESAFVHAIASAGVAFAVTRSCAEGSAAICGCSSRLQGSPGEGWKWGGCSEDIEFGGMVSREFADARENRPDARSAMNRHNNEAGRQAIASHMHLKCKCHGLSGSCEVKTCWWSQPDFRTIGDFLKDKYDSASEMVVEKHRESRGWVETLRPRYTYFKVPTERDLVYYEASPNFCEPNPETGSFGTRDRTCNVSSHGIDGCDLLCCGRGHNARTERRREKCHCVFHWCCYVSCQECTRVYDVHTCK
# [14] = biological target: Long-chain-fatty-acid--AMP ligase FadD28 (Mycobacterium tuberculosis, UniProt P9WQ59); experiment: Fluorescence polarization aasay to screen for inhibitors that compete for the binding of FadD28 to a bisubstrate Measured in Biochemical System Using Plate Reader - 2147-01_Inhibitor_Dose_CherryPick_Activity.; assay type: functional, Mycobacterium tuberculosis H37Rv
# [15] = HEK293T cell cytotoxicity, dose response, cytotoxicity control for HIV Vif inhibitor project, cherry-picks (AID 652208); assay type: functional, cell-based
# [16] = microbe, parasite or virus in culture; assay type: functional; settings: Mycobacterium tuberculosis
# [17] = biological target: Neurotensin receptor type 1 (Homo sapiens, UniProt P30989); assay type: functional;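 also: Image-based confirmatory dose-response assay measuring agonist activity at NTR1; NTR1-expressing U2OS osteosarcoma cells imaged for beta-arrestin GFP spot formation; agonist potency where compounds increase beta-arrestin recruitment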
# Sequence of Neurotensin receptor type 1 (P30989 whole entry): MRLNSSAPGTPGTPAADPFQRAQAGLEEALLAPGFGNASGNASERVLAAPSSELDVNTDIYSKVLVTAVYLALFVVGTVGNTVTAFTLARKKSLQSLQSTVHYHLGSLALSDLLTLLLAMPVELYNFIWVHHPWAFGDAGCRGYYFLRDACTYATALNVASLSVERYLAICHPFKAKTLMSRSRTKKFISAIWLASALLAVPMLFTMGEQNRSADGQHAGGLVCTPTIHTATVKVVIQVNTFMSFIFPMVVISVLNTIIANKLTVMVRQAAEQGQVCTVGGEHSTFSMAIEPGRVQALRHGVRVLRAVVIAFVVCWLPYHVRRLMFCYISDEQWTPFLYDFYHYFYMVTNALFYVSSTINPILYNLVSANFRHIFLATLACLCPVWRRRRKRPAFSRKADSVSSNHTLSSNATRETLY
# [18] = biological target: Heat shock protein HSP 90-alpha (Homo sapiens, UniProt P07900); assay type: functional, organism-based
# [19] = test system: Vero; experiment: cells; assay type: functional; settings: Chlorocebus sabaeus
# [20] = biological target: Melanocortin receptor 4 (Homo sapiens, UniProt P32245); experiment: MC4R antagonist potency on cAMP, dose response, cell-based, TR-FRET, biased antagonists (AID 602298); assay type: functional;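 also: antagonist potency against agonist-stimulated cAMP production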
# Sequence of Melanocortin receptor 4 (P32245 whole entry): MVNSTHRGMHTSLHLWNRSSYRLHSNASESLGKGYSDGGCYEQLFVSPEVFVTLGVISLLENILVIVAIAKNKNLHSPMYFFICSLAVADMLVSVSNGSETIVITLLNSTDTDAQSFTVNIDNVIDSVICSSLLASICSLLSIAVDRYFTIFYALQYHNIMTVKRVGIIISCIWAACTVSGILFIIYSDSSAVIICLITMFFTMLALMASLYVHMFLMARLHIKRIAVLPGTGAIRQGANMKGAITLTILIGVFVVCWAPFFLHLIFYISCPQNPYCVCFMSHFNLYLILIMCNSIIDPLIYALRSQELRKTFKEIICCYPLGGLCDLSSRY
# [21] = Shn3 3'UTR reporter inhibitors, dose response, cell-based, Clone20 osteoblasts, firefly luciferase, cherry-picked (AID 624132); assay type: functional;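 also: firefly luciferase luminescence from reporter carrying the Shn3 3'UTR in osteoblasts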
# [22] = HepG2 cell cytotoxicity, dose response, cytotoxicity control for Shn3 inhibitor project, CellTiter-Glo, cherry-picked (AID 624134); assay type: functional, cell-based
# [23] = control 3'UTR Renilla luciferase suppression, dose response, counter-screen for Shn3 inhibitor project, cell-based, Clone20-Shn3RL, cherry-picked (AID 624133); assay type: functional
# [24] = nonselective inhibitors of cellular cAMP signaling, dose response, counter-screen for MC4R biased antagonist project, cell-based, TR-FRET cAMP detection (AID 602305); assay type: functional;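 also: U2OS cells stimulated with forskolin near its EC80 as the cAMP inducer; potency is for inhibition of forskolin-stimulated cAMP signaling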
# [25] = Fluorescence-based cell-based high throughput dose response assay for inhibitors of the interaction of nucleotide-binding oligomerization domain containing 2 (NOD2) and the receptor-interacting serine-threonine kinase 2 (RIPK2).; assay type: functional; settings: Homo sapiens
# [26] = biological target: Ras and Rab interactor 1/Tyrosine-protein kinase ABL1 (Homo sapiens, UniProt P00519+Q13671); assay type: functional;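 also: biochemical TR-FRET dose-response test measuring inhibition of binding between Rin1 and Abl proteins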
# [27] = HeLa cell cytotoxicity, dose response, cytotoxicity control for MgcRacGAP inhibitor project (AID 624300); assay type: functional
# [28] = biological target: T6, Rac GTPase-activating protein 1 (Homo sapiens, UniProt Q9H0H5); experiment: MgcRacGAP GTPase-activating activity inhibitors, confirmation, biochemical, ADP Hunter fluorescence, primary and confirmatory (AID 624330); assay type: functional
# T6 sequence (Q9H0H5 whole entry): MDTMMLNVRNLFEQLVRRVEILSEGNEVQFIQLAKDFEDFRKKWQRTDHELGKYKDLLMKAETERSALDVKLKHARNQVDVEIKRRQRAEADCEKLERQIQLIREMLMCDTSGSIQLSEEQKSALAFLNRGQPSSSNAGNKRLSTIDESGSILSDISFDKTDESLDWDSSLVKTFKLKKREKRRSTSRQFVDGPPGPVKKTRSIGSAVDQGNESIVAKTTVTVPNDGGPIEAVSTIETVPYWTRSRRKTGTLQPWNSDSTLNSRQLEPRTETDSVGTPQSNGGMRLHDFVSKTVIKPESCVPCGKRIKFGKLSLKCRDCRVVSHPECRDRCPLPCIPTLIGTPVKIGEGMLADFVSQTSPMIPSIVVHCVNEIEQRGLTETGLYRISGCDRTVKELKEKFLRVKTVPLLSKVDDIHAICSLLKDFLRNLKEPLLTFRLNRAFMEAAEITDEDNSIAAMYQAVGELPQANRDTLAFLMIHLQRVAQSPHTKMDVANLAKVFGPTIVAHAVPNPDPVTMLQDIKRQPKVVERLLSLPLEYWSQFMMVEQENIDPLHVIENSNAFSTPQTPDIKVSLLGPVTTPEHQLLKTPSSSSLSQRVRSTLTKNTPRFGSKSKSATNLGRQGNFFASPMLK
# [29] = biological target: T7, DNA repair protein RAD52 homolog (Homo sapiens, UniProt P43351); assay type: functional, biochemical
# T7 sequence (P43351 whole entry): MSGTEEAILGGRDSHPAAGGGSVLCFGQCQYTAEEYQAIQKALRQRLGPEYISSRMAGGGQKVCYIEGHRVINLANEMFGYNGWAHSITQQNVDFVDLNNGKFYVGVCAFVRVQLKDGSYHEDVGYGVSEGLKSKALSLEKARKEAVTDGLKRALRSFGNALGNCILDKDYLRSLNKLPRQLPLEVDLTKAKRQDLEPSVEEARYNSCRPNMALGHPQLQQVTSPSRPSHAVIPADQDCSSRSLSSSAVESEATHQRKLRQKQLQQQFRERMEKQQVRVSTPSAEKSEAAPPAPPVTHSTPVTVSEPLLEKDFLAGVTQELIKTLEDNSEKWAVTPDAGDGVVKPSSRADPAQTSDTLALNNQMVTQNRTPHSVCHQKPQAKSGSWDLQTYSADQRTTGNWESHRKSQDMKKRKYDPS
# [30] = biological target: DNA (cytosine-5)-methyltransferase 1 (Homo sapiens, UniProt P26358); experiment: DNMT1 methyltransferase inhibitors, confirmation, biochemical, fluorescent molecular beacon (AID 602386); assay type: functional
# Sequence of DNA (cytosine-5)-methyltransferase 1 (P26358 whole entry): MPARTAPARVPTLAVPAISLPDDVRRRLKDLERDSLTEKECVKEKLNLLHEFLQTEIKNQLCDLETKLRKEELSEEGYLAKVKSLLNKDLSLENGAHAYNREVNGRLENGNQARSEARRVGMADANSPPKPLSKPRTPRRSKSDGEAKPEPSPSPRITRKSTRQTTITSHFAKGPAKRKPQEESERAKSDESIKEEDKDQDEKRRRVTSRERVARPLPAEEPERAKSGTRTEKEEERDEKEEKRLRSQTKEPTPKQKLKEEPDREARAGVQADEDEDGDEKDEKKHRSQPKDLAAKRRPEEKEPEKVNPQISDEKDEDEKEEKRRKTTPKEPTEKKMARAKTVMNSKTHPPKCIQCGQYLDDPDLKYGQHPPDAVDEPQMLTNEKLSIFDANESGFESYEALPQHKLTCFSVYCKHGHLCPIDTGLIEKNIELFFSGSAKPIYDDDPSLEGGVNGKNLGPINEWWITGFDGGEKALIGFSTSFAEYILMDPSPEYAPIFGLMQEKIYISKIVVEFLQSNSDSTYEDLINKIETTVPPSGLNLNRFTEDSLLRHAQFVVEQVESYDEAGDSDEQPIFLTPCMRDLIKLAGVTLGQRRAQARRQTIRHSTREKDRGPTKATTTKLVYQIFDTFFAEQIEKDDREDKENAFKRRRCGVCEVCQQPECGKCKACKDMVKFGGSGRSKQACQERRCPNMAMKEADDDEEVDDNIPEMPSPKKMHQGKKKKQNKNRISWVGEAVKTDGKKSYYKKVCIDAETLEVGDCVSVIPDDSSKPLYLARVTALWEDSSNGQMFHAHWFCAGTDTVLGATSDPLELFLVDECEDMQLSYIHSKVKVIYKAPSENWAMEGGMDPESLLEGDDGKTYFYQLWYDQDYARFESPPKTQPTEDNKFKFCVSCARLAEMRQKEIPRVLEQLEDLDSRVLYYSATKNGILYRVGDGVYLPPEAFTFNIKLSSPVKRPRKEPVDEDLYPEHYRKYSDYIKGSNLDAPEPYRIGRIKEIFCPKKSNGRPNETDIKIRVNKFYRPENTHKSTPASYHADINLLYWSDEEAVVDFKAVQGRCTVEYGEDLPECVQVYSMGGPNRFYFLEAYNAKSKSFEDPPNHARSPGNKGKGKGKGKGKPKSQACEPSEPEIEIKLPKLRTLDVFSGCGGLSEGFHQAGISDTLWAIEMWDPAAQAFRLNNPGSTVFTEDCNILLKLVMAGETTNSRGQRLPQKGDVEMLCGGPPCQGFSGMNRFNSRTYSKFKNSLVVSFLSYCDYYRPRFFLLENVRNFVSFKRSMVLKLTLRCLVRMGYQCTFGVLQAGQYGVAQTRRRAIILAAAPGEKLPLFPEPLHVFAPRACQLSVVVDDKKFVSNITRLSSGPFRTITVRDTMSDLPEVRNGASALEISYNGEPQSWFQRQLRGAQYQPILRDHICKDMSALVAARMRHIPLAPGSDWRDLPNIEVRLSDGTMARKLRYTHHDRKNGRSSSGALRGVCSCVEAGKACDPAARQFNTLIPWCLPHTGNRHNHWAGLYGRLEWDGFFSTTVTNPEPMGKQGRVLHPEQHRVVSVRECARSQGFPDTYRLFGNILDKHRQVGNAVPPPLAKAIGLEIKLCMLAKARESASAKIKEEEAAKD
# [31] = biological target: Glucose-6-phosphate 1-dehydrogenase (Homo sapiens, UniProt P11413); experiment: human G6PD enzyme inhibitors, dose response, selectivity assay for P. falciparum G6PD inhibitor project, biochemical, fluorescence (AID 504792); assay type: functional
# [32] = biological target: Beta Lactamase (Pseudomonas aeruginosa, UniProt Q932Y6); experiment: beta-lactamase reporter inhibitor potency, dose response, artefact control for NOD2-RIPK2 interaction inhibitor project, BLA reporter cells, FRET fluorescence (AID 651552); assay type: functional, cell-based
# Sequence of Beta Lactamase (Q932Y6 whole entry): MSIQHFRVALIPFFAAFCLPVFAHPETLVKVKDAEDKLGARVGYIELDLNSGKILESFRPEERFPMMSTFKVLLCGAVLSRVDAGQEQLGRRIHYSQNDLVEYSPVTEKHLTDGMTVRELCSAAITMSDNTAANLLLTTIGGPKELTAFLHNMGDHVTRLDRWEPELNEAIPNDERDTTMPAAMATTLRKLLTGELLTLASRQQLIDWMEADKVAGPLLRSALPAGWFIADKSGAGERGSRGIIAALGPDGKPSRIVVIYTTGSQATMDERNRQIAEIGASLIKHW
# [33] = biological target: ADP-ribosylation factor GTPase-activating protein 1 (Rattus norvegicus, UniProt Q62848); experiment: Fluorescence polarization-based biochemical high throughput dose response screening assay to identify inhibitors of ADP-ribosylation factor GTPase activating protein 1 (ARFGAP1).; assay type: functional
# [34] = biological target: Arf-GAP with SH3 domain, ANK repeat and PH domain-containing protein 1 (Homo sapiens, UniProt Q9ULH1); assay type: functional;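 also: biochemical fluorescence polarization dose–response screen measuring inhibition of ASAP1; ASAP1 GAP domain stimulating GTP hydrolysis by truncated human ARF1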
# Sequence of Arf-GAP with SH3 domain, ANK repeat and PH domain-containing protein 1 (Q9ULH1 whole entry, the tested form may be a part): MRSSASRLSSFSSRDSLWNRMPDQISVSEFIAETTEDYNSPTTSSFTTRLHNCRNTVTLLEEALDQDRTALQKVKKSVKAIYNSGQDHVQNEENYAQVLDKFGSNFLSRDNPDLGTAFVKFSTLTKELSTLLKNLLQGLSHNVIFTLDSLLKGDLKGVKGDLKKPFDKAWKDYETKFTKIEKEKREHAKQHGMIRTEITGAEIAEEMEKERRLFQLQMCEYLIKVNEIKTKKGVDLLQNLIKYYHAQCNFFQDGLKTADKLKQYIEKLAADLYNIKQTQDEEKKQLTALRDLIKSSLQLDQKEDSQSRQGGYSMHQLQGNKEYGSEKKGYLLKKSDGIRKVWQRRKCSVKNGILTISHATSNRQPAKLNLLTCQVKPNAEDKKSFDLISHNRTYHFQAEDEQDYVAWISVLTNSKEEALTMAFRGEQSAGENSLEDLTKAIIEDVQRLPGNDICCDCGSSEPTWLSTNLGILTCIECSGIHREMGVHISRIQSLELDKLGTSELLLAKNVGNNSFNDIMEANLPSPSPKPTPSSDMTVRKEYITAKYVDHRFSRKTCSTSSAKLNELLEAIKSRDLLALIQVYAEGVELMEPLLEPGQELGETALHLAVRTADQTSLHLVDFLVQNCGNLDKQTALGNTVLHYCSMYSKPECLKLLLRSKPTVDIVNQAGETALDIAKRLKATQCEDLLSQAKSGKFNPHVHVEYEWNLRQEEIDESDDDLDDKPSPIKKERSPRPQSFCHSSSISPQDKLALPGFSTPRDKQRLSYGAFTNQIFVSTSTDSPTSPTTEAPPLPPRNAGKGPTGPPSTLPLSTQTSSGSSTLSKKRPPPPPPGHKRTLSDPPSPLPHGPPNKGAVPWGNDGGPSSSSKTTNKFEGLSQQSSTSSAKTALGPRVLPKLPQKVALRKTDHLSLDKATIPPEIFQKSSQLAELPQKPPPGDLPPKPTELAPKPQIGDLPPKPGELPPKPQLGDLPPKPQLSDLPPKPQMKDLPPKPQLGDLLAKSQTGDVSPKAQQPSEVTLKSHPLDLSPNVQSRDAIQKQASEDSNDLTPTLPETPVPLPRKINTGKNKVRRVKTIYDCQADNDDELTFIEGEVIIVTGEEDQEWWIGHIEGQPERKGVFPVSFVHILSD
# [35] = biological target: T8, Low molecular weight phosphotyrosine protein phosphatase (Homo sapiens, UniProt P24666); assay type: functional; settings: read-out: IC50_Mean
# T8 sequence (P24666 whole entry): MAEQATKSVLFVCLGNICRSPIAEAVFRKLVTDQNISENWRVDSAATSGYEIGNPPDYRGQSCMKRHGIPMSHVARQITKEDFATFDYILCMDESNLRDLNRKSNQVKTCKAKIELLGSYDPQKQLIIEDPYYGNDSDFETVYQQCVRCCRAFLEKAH
# [36] = biological target: T8, Low molecular weight phosphotyrosine protein phosphatase; assay type: functional; settings: read-out: IC50_Mean; remark: listed apart in the source
smiles,measurement,setting,value
Nc1cc2nc(O)c3ccccc3c2cc1[N+](=O)[O-],IC50,[1],> 79 µM (inactive)
same,IC50,[2],45.7 µM (inactive)
same,IC50,[3],1.02 µM (active)
same,IC50,[4],> 66 µM (inactive)
same,IC50,[5],51.8 µM (inactive)
Cc1ccccc1C(=O)Nc1nnc(SCC(=O)NCc2ccco2)s1,IC50,[6],> 59.6 µM (inactive)
same,IC50,[7],> 59.6 µM (inactive)
same,IC50,[8],> 59.6 µM (inactive)
CN(C)c1ccnc2sc3c(=O)n(Cc4ccccc4)cnc3c12,IC50,[9],> 20 µM (inactive)
same,IC50,[10],12.2 µM (inactive)
Cc1ccc(NC(=O)CN2C(=O)NC3(CCc4ccccc43)C2=O)cc1Cl (stereo unspecified),IC50,[11],9.3 µM (active)
same,IC50,[12],11.2 µM (active)
C/C(=N\NC(=O)C(=O)Nc1ccc(C)c(Cl)c1)c1ccncc1,IC50,[13],0.909 µM (active)
COc1cc(NS(=O)(=O)c2ccc(NC(=O)c3ccc(Cl)cc3Cl)cc2)ncn1,IC50,[11],4.47 µM (active)
same,IC50,[12],9.46 µM (active)
CCn1ncc(Br)c1C(=O)Nc1ccc(OC(F)(F)F)cc1,AC50,[14],52 µM (active)
CC(=O)Nc1ccc(NC(=O)COc2ccccc2C(=O)Nc2cccc(Cl)c2Cl)cc1,AC50,[15],8.25 µM (active)
O=C(c1ccc(Br)cc1)C(CN1CCOCC1)c1ccccc1 (stereo unspecified),CC50,[16],> 40 µM (active)
same,EC50,[17],33 µM (inactive)
same,AC50,[18],2.85 µM (active)
same,CC50,[19],> 25 µM (active)
same,IC50,[20],> 64.6 µM (inactive)
same,AC50,[21],9.4 µM (active)
same,AC50,[22],21.6 µM (active)
same,AC50,[23],10.6 µM (active)
same,IC50,[24],> 64.6 µM (inactive)
same,IC50,[25],7.78 µM (active)
COc1cccc2c3cccc(OC)c3c3[nH]cnc3c12,IC50,[26],15.8 µM (inactive)
same,CC50,[27],43.9 µM (active)
same,IC50,[28],82.8 µM (active)
same,AC50,[29],0.513 µM (active)
CCCCCCCCc1nnc(NC(=O)c2ccco2)s1,IC50,[30],42.4 µM (active)
COc1cc(OC)cc(Oc2ccc(S(=O)(=O)N3CCCCC3)cc2[N+](=O)[O-])c1,IC50,[20],> 64.6 µM (inactive)
same,IC50,[24],> 64.6 µM (inactive)
Clc1nssc1=Nc1nncs1,IC50,[31],42.3 µM (inactive)
same,IC50,[25],6.62 µM (active)
same,IC50,[32],49.8 µM (inactive)
CC(=O)c1cccc(NC(=O)c2cccc3c(-c4cccnc4)coc23)c1,IC50,[33],129 µM (inactive)
same,IC50,[34],79.4 µM (inactive)
COCCNc1nc(NCc2ccc(C)cc2C)c2sccc2n1,IC50,[35],15.6 µM (active)
same,IC50,[36],13.8 µM (active)
